According to patent US20230017045A1, “PYRIDINE AND PYRIMIDINE CARBOXYLATE HERBICIDES AND METHODS OF USE THEREOF” (Dow AgroSciences LLC, priority 2017, published 2023):

Each compound was assayed on test plant species (assay: Post-emergent herbicidal activity test (greenhouse, foliar spray, visual growth reduction)). Conditions: post-emergence, 336 h, ALOMY: blackgrass (Alopecurus myosuroides), 140 g ai/ha, 14 days after application, read-out: Visual Growth Reduction (%) 14 Days After Application, ALOMY.
Type: in vivo
Procedure: Post-emergent Test: Seeds or nutlets of the desired test plant species were planted in Sun Gro Metro-Mix® 360 planting mixture, which typically has a pH of 6.0 to 6.8 and an organic matter content of about 30 percent, in plastic pots with a surface area of 64 square centimeters. In some aspects, to ensure good germination and healthy plants, a fungicide treatment and/or other chemical or physical treatment was applied. The plants were grown for 7-21 d in a greenhouse with an approximate 15 h photoperiod which was maintained at 23-29° C. during the day and 22-28° C. during the night. Nutrients and water were added on a regular basis and supplemental lighting was provided with overhead metal halide 1000-Watt lamps as necessary. Plants were used for testing when they reached the first or second true leaf stage. A weighed amount, determined by the highest rate to be tested, of each test compound was placed in a 25 mL glass vial and was dissolved in 4 mL of a 97:3 v/v mixture of acetone and DMSO to obtain concentrated stock solutions. […] The concentrated stock solutions obtained were diluted with 20 mL of an aqueous mixture containing acetone, water, isopropyl alcohol, DMSO, […] crop oil concentrate, and X-77 surfactant in a 48.5:39:10:1.5:1.0:0.02 v/v ratio to obtain spray solutions containing the application rate. Compound requirements are based upon a 12 mL application volume at a rate of 187 liters per hectare (L/ha). Formulated compounds were applied to the plant material with an overhead Mandel track sprayer equipped with […] nozzles calibrated to deliver 187 L/ha over an application area of 0.64 square meters at a spray height of 18 inches (43 cm) above the average plant canopy height. Control plants were sprayed in the same manner with the solvent blank. The treated plants and control plants were placed in a greenhouse as described above and watered by subirrigation to prevent wash-off of the test compounds. After 14 d, the condition of the test plants as compared with that of the nontreated and control plants was determined visually and scored on a scale of 0 to 100 percent where 0 corresponds to no injury and 100 corresponds to complete control. In the reporting of the results, Table A: Percent Growth Reduction Conversion Table was used.

| Compound | pest or weed control at 140 g/ha [%] |
| --- | --- |
| COC(=O)c1nc(-c2ccc(C#N)cc2)c(F)cc1Cl [F168, Methyl 3-chloro-6-(4-cyanophenyl)-5-fluoropicolinate] | 0 to 29 |
| COC(=O)c1nc(-c2ccc(SC(F)(F)F)cc2Cl)c(F)cc1Cl [F135, Methyl 3-chloro-6-(2-chloro-4-((trifluoromethyl)thio)phenyl)-5 fluoropicolinate] | 30 to 44 |

Same assay, conditions: post-emergence, 336 h, AMARE: redroot pigweed (Amaranthus retroflexus), 140 g ai/ha, 14 days after application, read-out: Visual Growth Reduction (%) 14 Days After Application, AMARE

| Compound | pest or weed control at 140 g/ha [%] |
| --- | --- |
| COC(=O)c1nc(-c2ccc(C#N)cc2)c(F)cc1Cl [F168, Methyl 3-chloro-6-(4-cyanophenyl)-5-fluoropicolinate] | 30 to 44 |
| COC(=O)c1nc(-c2ccc(SC(F)(F)F)cc2Cl)c(F)cc1Cl [F135, Methyl 3-chloro-6-(2-chloro-4-((trifluoromethyl)thio)phenyl)-5 fluoropicolinate] | 95 to 100 |

Same assay, conditions: post-emergence, 336 h, AVEFA: wild oat (Avena fatua), 140 g ai/ha, 14 days after application, read-out: Visual Growth Reduction (%) 14 Days After Application, AVEFA

| Compound | pest or weed control at 140 g/ha [%] |
| --- | --- |
| COC(=O)c1nc(-c2ccc(C#N)cc2)c(F)cc1Cl [F168, Methyl 3-chloro-6-(4-cyanophenyl)-5-fluoropicolinate] | 0 to 29 |
| COC(=O)c1nc(-c2ccc(SC(F)(F)F)cc2Cl)c(F)cc1Cl [F135, Methyl 3-chloro-6-(2-chloro-4-((trifluoromethyl)thio)phenyl)-5 fluoropicolinate] | 60 to 74 |

Same assay, conditions: post-emergence, 336 h, CHEAL: lambsquarters (Chenopodium album), 140 g ai/ha, 14 days after application, read-out: Visual Growth Reduction (%) 14 Days After Application, CHEAL

| Compound | pest or weed control at 140 g/ha [%] |
| --- | --- |
| COC(=O)c1nc(-c2ccc(C#N)cc2)c(F)cc1Cl [F168, Methyl 3-chloro-6-(4-cyanophenyl)-5-fluoropicolinate] | 45 to 59 |
| COC(=O)c1nc(-c2ccc(SC(F)(F)F)cc2Cl)c(F)cc1Cl [F135, Methyl 3-chloro-6-(2-chloro-4-((trifluoromethyl)thio)phenyl)-5 fluoropicolinate] | 85 to 94 |

Same assay, conditions: post-emergence, 336 h, CIRAR: canada thistle (Cirsium arvense), 140 g ai/ha, 14 days after application, read-out: Visual Growth Reduction (%) 14 Days After Application, CIRAR

| Compound | pest or weed control at 140 g/ha [%] |
| --- | --- |
| COC(=O)c1nc(-c2ccc(C#N)cc2)c(F)cc1Cl [F168, Methyl 3-chloro-6-(4-cyanophenyl)-5-fluoropicolinate] | 0 to 29 |
| COC(=O)c1nc(-c2ccc(SC(F)(F)F)cc2Cl)c(F)cc1Cl [F135, Methyl 3-chloro-6-(2-chloro-4-((trifluoromethyl)thio)phenyl)-5 fluoropicolinate] | 95 to 100 |

Same assay, conditions: post-emergence, 336 h, CYPES: yellow nutsedge (Cyperus esculentus), 140 g ai/ha, 14 days after application, read-out: Visual Growth Reduction (%) 14 Days After Application, CYPES

| Compound | pest or weed control at 140 g/ha [%] |
| --- | --- |
| COC(=O)c1nc(-c2ccc(C#N)cc2)c(F)cc1Cl [F168, Methyl 3-chloro-6-(4-cyanophenyl)-5-fluoropicolinate] | 0 to 29 |
| COC(=O)c1nc(-c2ccc(SC(F)(F)F)cc2Cl)c(F)cc1Cl [F135, Methyl 3-chloro-6-(2-chloro-4-((trifluoromethyl)thio)phenyl)-5 fluoropicolinate] | 0 to 29 |

Same assay, conditions: post-emergence, 336 h, DIGSA: crabgrass (Digitaria sanguinalis), 140 g ai/ha, 14 days after application, read-out: Visual Growth Reduction (%) 14 Days After Application, DIGSA

| Compound | pest or weed control at 140 g/ha [%] |
| --- | --- |
| COC(=O)c1nc(-c2ccc(C#N)cc2)c(F)cc1Cl [F168, Methyl 3-chloro-6-(4-cyanophenyl)-5-fluoropicolinate] | 60 to 74 |
| COC(=O)c1nc(-c2ccc(SC(F)(F)F)cc2Cl)c(F)cc1Cl [F135, Methyl 3-chloro-6-(2-chloro-4-((trifluoromethyl)thio)phenyl)-5 fluoropicolinate] | 95 to 100 |

Same assay, conditions: post-emergence, 336 h, ECHCG: barnyardgrass (Echinochloa crus-galli), 140 g ai/ha, 14 days after application, read-out: Visual Growth Reduction (%) 14 Days After Application, ECHCG

| Compound | pest or weed control at 140 g/ha [%] |
| --- | --- |
| COC(=O)c1nc(-c2ccc(C#N)cc2)c(F)cc1Cl [F168, Methyl 3-chloro-6-(4-cyanophenyl)-5-fluoropicolinate] | 30 to 44 |
| COC(=O)c1nc(-c2ccc(SC(F)(F)F)cc2Cl)c(F)cc1Cl [F135, Methyl 3-chloro-6-(2-chloro-4-((trifluoromethyl)thio)phenyl)-5 fluoropicolinate] | 45 to 59 |

Same assay, conditions: post-emergence, 336 h, IPOHE: ivy-leaf morning glory (Ipomoea hederacea), 140 g ai/ha, 14 days after application, read-out: Visual Growth Reduction (%) 14 Days After Application, IPOHE

| Compound | pest or weed control at 140 g/ha [%] |
| --- | --- |
| COC(=O)c1nc(-c2ccc(C#N)cc2)c(F)cc1Cl [F168, Methyl 3-chloro-6-(4-cyanophenyl)-5-fluoropicolinate] | 60 to 74 |
| COC(=O)c1nc(-c2ccc(SC(F)(F)F)cc2Cl)c(F)cc1Cl [F135, Methyl 3-chloro-6-(2-chloro-4-((trifluoromethyl)thio)phenyl)-5 fluoropicolinate] | 95 to 100 |

Same assay, conditions: post-emergence, 336 h, KCHSC: kochia (Bassia scoparia), 140 g ai/ha, 14 days after application, read-out: Visual Growth Reduction (%) 14 Days After Application, KCHSC

| Compound | pest or weed control at 140 g/ha [%] |
| --- | --- |
| COC(=O)c1nc(-c2ccc(C#N)cc2)c(F)cc1Cl [F168, Methyl 3-chloro-6-(4-cyanophenyl)-5-fluoropicolinate] | 0 to 29 |
| COC(=O)c1nc(-c2ccc(SC(F)(F)F)cc2Cl)c(F)cc1Cl [F135, Methyl 3-chloro-6-(2-chloro-4-((trifluoromethyl)thio)phenyl)-5 fluoropicolinate] | 85 to 94 |

Same assay, conditions: post-emergence, 336 h, ORYSA: rice (Oryza sativa), 140 g ai/ha, 14 days after application, read-out: Visual Growth Reduction (%) 14 Days After Application, ORYSA

| Compound | pest or weed control at 140 g/ha [%] |
| --- | --- |
| COC(=O)c1nc(-c2ccc(C#N)cc2)c(F)cc1Cl [F168, Methyl 3-chloro-6-(4-cyanophenyl)-5-fluoropicolinate] | 0 to 29 |
| COC(=O)c1nc(-c2ccc(SC(F)(F)F)cc2Cl)c(F)cc1Cl [F135, Methyl 3-chloro-6-(2-chloro-4-((trifluoromethyl)thio)phenyl)-5 fluoropicolinate] | 0 to 29 |

Same assay, conditions: post-emergence, 336 h, SETFA: giant foxtail (Setaria faberi), 140 g ai/ha, 14 days after application, read-out: Visual Growth Reduction (%) 14 Days After Application, SETFA

| Compound | pest or weed control at 140 g/ha [%] |
| --- | --- |
| COC(=O)c1nc(-c2ccc(C#N)cc2)c(F)cc1Cl [F168, Methyl 3-chloro-6-(4-cyanophenyl)-5-fluoropicolinate] | 30 to 44 |
| COC(=O)c1nc(-c2ccc(SC(F)(F)F)cc2Cl)c(F)cc1Cl [F135, Methyl 3-chloro-6-(2-chloro-4-((trifluoromethyl)thio)phenyl)-5 fluoropicolinate] | 85 to 94 |

Same assay, conditions: post-emergence, 336 h, SORVU: grain sorghum (Sorghum vulgare), 140 g ai/ha, 14 days after application, read-out: Visual Growth Reduction (%) 14 Days After Application, SORVU

| Compound | pest or weed control at 140 g/ha [%] |
| --- | --- |
| COC(=O)c1nc(-c2ccc(C#N)cc2)c(F)cc1Cl [F168, Methyl 3-chloro-6-(4-cyanophenyl)-5-fluoropicolinate] | 30 to 44 |
| COC(=O)c1nc(-c2ccc(SC(F)(F)F)cc2Cl)c(F)cc1Cl [F135, Methyl 3-chloro-6-(2-chloro-4-((trifluoromethyl)thio)phenyl)-5 fluoropicolinate] | 95 to 100 |

Same assay, conditions: post-emergence, 336 h, STEME: common chickweed (Stellaria media), 140 g ai/ha, 14 days after application, read-out: Visual Growth Reduction (%) 14 Days After Application, STEME

| Compound | pest or weed control at 140 g/ha [%] |
| --- | --- |
| COC(=O)c1nc(-c2ccc(C#N)cc2)c(F)cc1Cl [F168, Methyl 3-chloro-6-(4-cyanophenyl)-5-fluoropicolinate] | 0 to 29 |
| COC(=O)c1nc(-c2ccc(SC(F)(F)F)cc2Cl)c(F)cc1Cl [F135, Methyl 3-chloro-6-(2-chloro-4-((trifluoromethyl)thio)phenyl)-5 fluoropicolinate] | 0 to 29 |

Same assay, conditions: post-emergence, 336 h, TRZAS: wheat, spring (Triticum aestivum), 140 g ai/ha, 14 days after application, read-out: Visual Growth Reduction (%) 14 Days After Application, TRZAS

| Compound | pest or weed control at 140 g/ha [%] |
| --- | --- |
| COC(=O)c1nc(-c2ccc(C#N)cc2)c(F)cc1Cl [F168, Methyl 3-chloro-6-(4-cyanophenyl)-5-fluoropicolinate] | 0 to 29 |
| COC(=O)c1nc(-c2ccc(SC(F)(F)F)cc2Cl)c(F)cc1Cl [F135, Methyl 3-chloro-6-(2-chloro-4-((trifluoromethyl)thio)phenyl)-5 fluoropicolinate] | 45 to 59 |
